Data from article PMC3984256, “A PCNA-Derived Cell Permeable Peptide Selectively Inhibits Neuroblastoma Cell Growth” (PLoS ONE, 2014).
pIC50: −log10 of the molar value. Where a SMILES comes first, the peptide text is derived from it. [ ]: non-standard residue; d: D form.

What was measured:
SK-N-BE(2)c cells = assay: Clonogenic assay; assay type: cell-based, human; settings: 3 dishes averaged
Protocol: Three hundred fifty SK-N-BE(2)c cells were seeded onto a 60-mm tissue culture dish. Once attached overnight, cells were treated with or without cisplatin for 2 h. Cells were washed twice with growth medium and were cultured in fresh medium with or without R9-caPep for 3 weeks to allow colony formation. The medium was changed every 3 d. The colonies formed under each treatment conditions were counted after being stained with 0.5% crystal violet.

[1] = system: PCNA and FEN1 co-localization in SK-N-AS NB cells; assay: PCNA/FEN1 co-localization, immunofluorescence; assay type: cell-based, human; settings: synchronized, 30 µM peptide 6 h after mimosine release
Protocol: (§1) Cells were seeded at 1×10^5/ml onto a chamber slide and were allowed to attach overnight. To analyze the interaction of PCNA with FEN1, LIGI, or Pol ä, we first synchronize cells at the G1/S boundary. The synchronization is achieved by starving cells in medium containing 0.25% FBS for 24 h. Cells were further cultured in the complete medium containing 400 µM of mimosine for 24 h. To release cells into S phase, cells were washed and incubated in mimosine-free medium containing 30 µM R9-caPep or R9-srbPep for 6 h. We pre-determined that the majority of cells were in the S-phase 6 h after mimosine was removed (data not shown). Cells were fixed in ice-cold methanol:acetone (50%:50%) for 10 min or in 4% paraformaldehyde for 20 min at room temperature. Cells were incubated with a goat polyclonal anti-PCNA antibody (Santa Cruz) and a mouse monoclonal anti-FEN1 antibody (Santa Cruz), a mouse anti-POLD3 antibody (Sigma, St. Louis, MO), or a mouse anti-LIGI antibody (Abcam, Cambridge, MA) for 1 h at room temperature. After being washed with PBS, cells were incubated with Alexa Fluor 488 conjugated anti-mouse IgG and Alexa Fluor 555 conjugated anti-goat IgG antibodies (Invitrogen, Grand Island, NY) for 1 h. Cells were mounted in Vectashield with DAPI (Vector Labs, Burlingame, CA) and visualized by a confocal microscope.

[2] = system: PCNA and LIGI co-localization in SK-N-AS NB cells; assay: PCNA/LIGI co-localization, immunofluorescence; assay type: cell-based, human; settings: synchronized, 30 µM peptide 6 h after mimosine release
Protocol: as §1

panel of NB cell lines = assay type: cell-based, human; settings: 72 h
Protocol: The human NB cell lines, SK-N-DZ, SK-N-BE(2)c, SK-N-AS, SK-N-SH, and SK-N-FI were obtained from the American Type Culture Collection (Rockville, MD). Cells were maintained in DMEM with 10% fetal bovine serum (FBS), 100 units/ml penicillin, and 100 µg/ml streptomycin in the presence of 5% CO2 at 37°C. Human PBMCs from a healthy donor were purchased from Sanguine BioSciences (Valencia, CA) and grown in RPMI1640 with10% FBS, 100 units/ml penicillin, 100 µg/ml streptomycin, and 10 ng/ml IL-2 in the presence of 5% CO2 at 37°C. Human embryonic progenitor cell line 7SM0032 was acquired from Millipore (Billerica, MA) and grown in the hEPM-1 Media Kit purchased from the same company.
To measure cell growth, cells were seeded at 3×10^4/ml. After being allowed to attach overnight, cells were treated with various concentrations of the peptides for 72 h. Cell growth was measured by the CellTitor-Glo assay (Promega, Madison, WI) according to manufacturer's instruction. To measure apoptosis, cells were seeded at 1×10^5/ml onto a chamber slide. Once attached, cells were treated with the peptides for 48 h. Cells were fixed and analyzed by a TUNEL assay using the TMR red in situ cell death detection kit (Roche Diagnostics, Indianapolis, IN).

ãH2A.X level = assay: γH2A.X western blot after γ-irradiation; assay type: cell-based; settings: 30 µM peptide, 2 h pretreatment, 5 Gy
Protocol: (§2) To study DNA damage and repair, attached cells were pretreated with the peptides for 2 h and were then ã-irradiated (5 Gy). After irradiation, cells were cultured in the presence of the peptides for the indicated time. For analyzing ãH2A.X foci formation, cells were fixed in a solution of methanol and acetone (70%:30% v/v) for 15 min at −20°C. The slides were air-dried for storage and rehydrated in PBS prior to immunostaining. Cells were stained by a mouse monoclonal antibody specific to ãH2A.X (Millipore, Billerica, MA) followed by an Alexa Fluor 488 conjugated anti-mouse IgG antibody. For analyzing Rad51 foci formation, cells were fixed in PBS buffered 4% paraformaldehyde at room temperature for 15 min. After being washed twice by PBS, cells were permeabilized in PBS containing 0.5% triton for 15 min on ice. The fixed and permeabilized cells were stained with a rabbit polyclonal antibody raised against the human Rad51 (Santa Cruz) followed by an Alexa Fluor 488 conjugated anti-rabbit IgG antibody. Stained cells were visualized and imaged by a confocal microscope.
Cell extracts were prepared by dissolving cell pellets directly into the Laemmli sample buffer and resolved in a 4–12% SDS polyacrylamide gel. Resolved proteins were blotted onto a nitrocellulose membrane. The membrane was blocked with 5% nonfat dry milk and incubated with an antibody specific to ãH2A.X (Millipore), total H2A.X (Cell Signaling Technology, Danvers, MA), MYCN (Cell Signaling Technology), or actin (Sigma) in the blocking buffer. After incubation with peroxidase-conjugated secondary antibodies, the protein of interest was detected using an ECL kit purchased from GE Healthcare.

synchronized cells = assay: Cell cycle analysis of synchronized cells within 6 h (data not shown); assay type: cell-based; settings: 6 h after mimosine release
Protocol: Cells were seeded at 1×10^5/ml. Once attached, cells were treated with or without R9-caPep for 48 hours. Cells were fixed in 60% ethanol and stained with propidium iodide (PI). The cellular PI fluorescence intensity was determined by flow cytometry. The flow cytometry data were analyzed by the FlowJo program to model various cell populations.
as §1, with “After being washed with PBS, cells were incubated with Alexa Fluor 488 conjugated anti-mouse IgG and Alexa Fluor 555 conjugated anti-goat IgG antibodies (Invitrogen, Grand Island, NY) for 1 h. Cells were mounted in Vectashield with DAPI (Vector Labs, Burlingame, CA) and visualized by a confocal microscope.” left out

ãH2A.X foci = assay: γH2A.X foci immunofluorescence after γ-irradiation; assay type: cell-based; settings: 30 µM peptide, 2 h pretreatment, 5 Gy; five fields; vs R9-srbPep
Protocol: as §2

- pIC50 (panel of NB cell lines): 4.49 to 5.00
SMILES: CC[C@H](C)[C@H](NC(=O)CNC(=O)[C@H](CC(C)C)NC(=O)[C@H](CS)NC(=O)[C@H](CS)NC(=O)[C@@H](CCCNC(=N)N)NC(=O)[C@@H](CCCNC(=N)N)NC(=O)[C@@H](CCCNC(=N)N)NC(=O)[C@@H](CCCNC(=N)N)NC(=O)[C@@H](CCCNC(=N)N)NC(=O)[C@@H](CCCNC(=N)N)NC(=O)[C@@H](CCCNC(=N)N)NC(=O)[C@@H](CCCNC(=N)N)NC(=O)[C@H](N)CCCNC(=N)N)C(=O)N1CCC[C@H]1C(=O)N[C@@H](CCC(=O)O)C(=O)N[C@@H](CCC(N)=O)C(=O)N[C@@H](CCC(=O)O)C(=O)N[C@@H](Cc1ccc(O)cc1)C(=O)O [R9-caPep] (H-[dR][dR][dR][dR][dR][dR][dR][dR][dR]CCLGIPEQEY-OH; N-terminus and C-terminus assumed)
- reduction of number of colonies, sequential cisplatin then R9-caPep (SK-N-BE(2)c cells; 1 µM cisplatin 2 h, then 20 µM R9-caPep 3 weeks): about 80%
- reduction of number of colonies, single agent (SK-N-BE(2)c cells; R9-caPep alone 20 µM 3 weeks, or cisplatin alone 1 µM 2 h): less than 30%
- FEN1 co-localization with PCNA foci [1]: didn't appear to overlap the PCNA foci
- LIGI co-localization with PCNA foci [2]: largely blocked
- sensitivity of MYCN-amplified vs. non-amplified NB cell lines (panel of NB cell lines; CellTiter-Glo): NB cell lines with MYCN amplification were uniformly more sensitive to R9-caPep than NB cell lines without MYCN amplification
- ãH2A.X level within 30 min after irradiation (ãH2A.X level): increased within 30 min following ã-irradiation in cells treated with either peptide
- ãH2A.X level 48 h after irradiation (ãH2A.X level; 48 h): remained elevated
- cell cycle progress within 6 h (synchronized cells): neither peptide significantly affected cell cycle progress within 6 h
- resolution of ãH2A.X foci (ãH2A.X foci): delayed the resolution of ãH2A.X foci induced by ã-irradiation
